Test results taken from ChEMBL document CHEMBL1154464, “Constrained analogues of tocainide as potent skeletal muscle sodium channel blockers towards the development of antimyotonic agents” (Eur J Med Chem, 2008).
pIC50: −log10 of the molar value.

Experiments:
[1] = Blockade of Nav1.4 sodium channel in frog semitendinosus muscle fibres assessed as phasic block at 10 Hz stimulation frequency by vaseline-gap voltage clamp method; assay type: tissue-based, Pelophylax lessonae
Pelophylax lessonae = assay: Ratio of IC50 for tonic blockade of Nav1.4 sodium channel to phasic blockade of Nav1.4 sodium channel in frog semitendinosus muscle fibres; assay type: tissue-based
[2] = Blockade of Nav1.4 sodium channel in frog semitendinosus muscle fibres assessed as tonic block elicited by infrequent depolarizing pulses at a frequency of 0.3 Hz by vaseline-gap voltage clamp method; assay type: tissue-based, Pelophylax lessonae

SMILES | pIC50 [1] | Ratio IC50 (Pelophylax lessonae) | pIC50 [2]
Cc1cccc(C)c1NC(=O)C1CN(Cc2ccccc2)CCN1 (configuration not stated) | 5.62 | 13 | 4.50
Cc1cccc(C)c1NC(=O)C(C)N (configuration not stated) [TOCAINIDE] | 3.56 |  | 3.24
Cc1cccc(C)c1NC(=O)C1CCCN(Cc2ccccc2)C1 (configuration not stated) | 5.35 |  | 4.41
